Test results reported in ChEMBL document CHEMBL5365526 (J Med Chem, 2023).
The source made the active and inactive calls. No cut-off for these calls is given here.

Experiments:
HCT-116 [1] = assay: Effect on trametinib-induced antitumor activity against human HCT-116 cells assessed as reduction in cell viability at 200 nM incubated for 72 hrs by CCK8 assay; assay type: functional, cell-based
[2] = target: T1, von Hippel-Lindau disease tumor suppressor/Mitogen-activated protein kinase 7 (Homo sapiens, UniProt Q13164+P40337); assay: PROTAC activity at VHL/ERK5 in human HCT-116 cells assessed as maximal induction of ERK5 degradation incubated for 12 hrs by western blot analysis relative to control; assay type: cell-based
Target sequence in this assay (P40337 whole entry partner): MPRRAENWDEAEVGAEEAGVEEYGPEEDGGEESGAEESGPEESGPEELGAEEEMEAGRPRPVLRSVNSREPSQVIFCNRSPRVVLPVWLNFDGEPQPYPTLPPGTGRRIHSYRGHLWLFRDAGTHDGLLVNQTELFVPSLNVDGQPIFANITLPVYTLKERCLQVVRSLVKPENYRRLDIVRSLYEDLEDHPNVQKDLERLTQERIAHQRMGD
Target sequence in this assay (Q13164 2-816 limits assumed): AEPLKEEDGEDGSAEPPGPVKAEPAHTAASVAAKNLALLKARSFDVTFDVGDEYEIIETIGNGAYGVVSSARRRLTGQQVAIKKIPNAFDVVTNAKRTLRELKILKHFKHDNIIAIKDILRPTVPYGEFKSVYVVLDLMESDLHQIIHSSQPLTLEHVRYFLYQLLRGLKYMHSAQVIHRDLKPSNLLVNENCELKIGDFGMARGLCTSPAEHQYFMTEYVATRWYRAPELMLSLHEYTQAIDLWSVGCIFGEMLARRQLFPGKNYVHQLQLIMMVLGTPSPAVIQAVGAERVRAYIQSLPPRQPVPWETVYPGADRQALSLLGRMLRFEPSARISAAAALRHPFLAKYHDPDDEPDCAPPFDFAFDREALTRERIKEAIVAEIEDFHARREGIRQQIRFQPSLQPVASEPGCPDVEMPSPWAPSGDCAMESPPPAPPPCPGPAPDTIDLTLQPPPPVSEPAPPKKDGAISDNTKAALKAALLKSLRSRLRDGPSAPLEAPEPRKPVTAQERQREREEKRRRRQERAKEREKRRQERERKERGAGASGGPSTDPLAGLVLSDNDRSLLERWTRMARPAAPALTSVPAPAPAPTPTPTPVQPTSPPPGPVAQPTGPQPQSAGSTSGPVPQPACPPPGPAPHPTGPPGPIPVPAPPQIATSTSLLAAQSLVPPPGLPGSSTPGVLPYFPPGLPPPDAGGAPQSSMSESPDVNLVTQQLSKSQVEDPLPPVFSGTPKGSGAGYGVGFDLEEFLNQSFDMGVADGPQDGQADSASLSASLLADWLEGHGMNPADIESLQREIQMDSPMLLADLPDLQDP

HCT-116 [3] = assay: Effect on vemurafenib-induced antitumor activity against human HCT-116 cells assessed as reduction in cell viability at 200 nM incubated for 72 hrs by CCK8 assay; assay type: functional, cell-based
[4] = Inhibition of M2 macrophage development in PMA-differentiated human THP-1 cells assessed as CD206 surface expression at 0.5 uM incubated for 48 hrs by flow cytometry (reference value: 53.4%); assay type: functional; parameters: scale not given: the % may be the effect or the level left
PC-3 = assay: Antiproliferative activity against human PC-3 cells assessed as reduction in cell viability incubated for 72 hrs by CCK8 assay; assay type: functional, cell-based
[5] = target: T1, von Hippel-Lindau disease tumor suppressor/Mitogen-activated protein kinase 7; assay: PROTAC activity at VHL/ERK5 in human A-375 cells assessed as induction of ERK5 degradation at 100 nM incubated for 24 hrs by western blot analysis; assay type: cell-based
Target sequence in this assay (P40337 whole entry partner): as the sequence (P40337 whole entry partner) above
Target sequence in this assay (Q13164 2-816 limits assumed): as the sequence (Q13164 2-816 limits assumed) above

HCT-116 [6] = assay: Inhibition of M2 macrophage development in human HCT-116 cells assessed as inhibition of cell colony formation at 0.5 uM cultured in macrophage M0 medium and measured after 7 days in presence of LPS by crystal violet staining based analysis; assay type: functional; settings: time 7.0 day
A-375 [7] = assay: Effect on vemurafenib-induced antitumor activity against human A-375 cells assessed as reduction in cell viability at 200 nM incubated for 72 hrs by CCK8 assay; assay type: functional, cell-based
A-375 [8] = assay: Effect on trametinib-induced antitumor activity against human A-375 cells assessed as reduction in cell viability at 200 nM incubated for 72 hrs by CCK8 assay; assay type: functional, cell-based
[9] = target: T1, von Hippel-Lindau disease tumor suppressor/Mitogen-activated protein kinase 7; assay: PROTAC activity at VHL/ERK5 in human HepG2 cells assessed as induction of ERK5 degradation incubated for 12 hrs by western blot analysis; assay type: cell-based
Target sequence in this assay (Q13164 whole entry): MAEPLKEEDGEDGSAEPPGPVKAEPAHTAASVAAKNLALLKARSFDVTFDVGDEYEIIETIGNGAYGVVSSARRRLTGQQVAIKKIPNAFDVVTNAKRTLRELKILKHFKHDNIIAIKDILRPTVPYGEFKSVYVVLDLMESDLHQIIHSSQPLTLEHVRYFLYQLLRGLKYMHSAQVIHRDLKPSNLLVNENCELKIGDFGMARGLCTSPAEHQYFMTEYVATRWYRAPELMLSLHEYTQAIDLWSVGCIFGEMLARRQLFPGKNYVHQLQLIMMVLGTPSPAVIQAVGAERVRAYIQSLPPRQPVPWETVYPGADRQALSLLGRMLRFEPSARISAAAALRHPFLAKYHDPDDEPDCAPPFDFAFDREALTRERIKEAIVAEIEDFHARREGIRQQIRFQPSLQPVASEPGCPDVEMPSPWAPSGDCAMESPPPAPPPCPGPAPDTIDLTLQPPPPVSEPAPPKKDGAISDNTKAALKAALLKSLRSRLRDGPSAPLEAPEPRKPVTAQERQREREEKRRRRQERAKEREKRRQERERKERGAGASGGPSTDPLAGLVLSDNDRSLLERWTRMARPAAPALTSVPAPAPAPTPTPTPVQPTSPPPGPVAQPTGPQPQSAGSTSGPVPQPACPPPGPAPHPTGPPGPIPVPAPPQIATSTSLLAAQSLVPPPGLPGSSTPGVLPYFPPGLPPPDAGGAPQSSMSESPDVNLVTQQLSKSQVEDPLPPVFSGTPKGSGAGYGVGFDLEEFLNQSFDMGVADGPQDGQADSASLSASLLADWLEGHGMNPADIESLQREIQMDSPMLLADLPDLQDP
Target sequence in this assay (P40337 whole entry): as the sequence (P40337 whole entry partner) above

A-375 [10] = assay: Inhibition of M2 macrophage development in human A-375 cells assessed as inhibition of cell colony formation at 0.5 uM cultured in specific M2 medium and measured after 7 days in presence of LPS by crystal violet staining based analysis; assay type: functional; settings: time 7.0 day
NCI-H1975 = assay: Antiproliferative activity against human NCI-H1975 cells assessed as reduction in cell viability incubated for 72 hrs by CCK8 assay; assay type: functional, cell-based
[11] = target: von Hippel-Lindau disease tumor suppressor/Bromodomain-containing protein 4 (Homo sapiens) (UniProt O60885+P40337); assay: PROTAC activity at VHL/BRD4 in human A-375 cells assessed as induction of BRD4 degradation at 6 to 500 nM incubated for 12 hrs by western bot analysis; assay type: cell-based; settings: dose 6-500 nM
[12] = target: T1, von Hippel-Lindau disease tumor suppressor/Mitogen-activated protein kinase 7; assay: PROTAC activity at VHL/ERK5 in human A-375 cells assessed as induction of ERK5 degradation at 200 nM pretreated for 1 hr with E3 ligase inhibitor, MLN4924 followed by incubation with compound for 12 hrs by western blot analysis; assay type: cell-based
Target sequence in this assay (P40337 whole entry partner): as above
Target sequence in this assay (Q13164 2-816 limits assumed): as the sequence (Q13164 2-816 limits assumed) above

A-375 [13] = assay: Effect on ERK5 mRNA expression in human A-375 cells at 10 to 1000 nM incubated for 24 hrs by real-time PCR analysis; assay type: functional, cell-based; settings: dose 10-1000 nM
HCT-116 [14] = assay: Inhibition of M2 macrophage development in human HCT-116 cells assessed as inhibition of cell colony formation at 0.5 uM cultured in specific M2 medium and measured after 7 days in presence of LPS by crystal violet staining based analysis; assay type: functional; settings: time 7.0 day
MDA-MB-231 = assay: Antiproliferative activity against human MDA-MB-231 cells assessed as reduction in cell viability incubated for 72 hrs by CCK8 assay; assay type: functional, cell-based
HCT-116 [15] = assay: Effect on cell migration in human HCT-116 cells at 0.01 to 1 uM incubated for 24 hrs by crystal violet staining based transwell assay; assay type: functional; settings: dose 0.01-1 µM
[16] = target: T1, von Hippel-Lindau disease tumor suppressor/Mitogen-activated protein kinase 7; assay: PROTAC activity at VHL/ERK5 in human THP-1 cells assessed as decrease in IL-6 level at 0.5 uM incubated for 0.5 hrs followed by incubation with LPS for 24 hrs; assay type: cell-based; settings: time 24.5 hrs
Target sequence in this assay (P40337 whole entry partner): as the sequence (P40337 whole entry partner) above
Target sequence in this assay (Q13164 2-816 limits assumed): as the sequence (Q13164 2-816 limits assumed) above

A-375 [17] = assay: Antiproliferative activity against human A-375 cells assessed as reduction in cell viability incubated for 72 hrs by CCK8 assay; assay type: functional, cell-based
A-375 [18] = assay: Effect on dabrafenib-induced antitumor activity against human A-375 cells assessed as reduction in cell viability at 200 nM incubated for 72 hrs by CCK8 assay; assay type: functional, cell-based
A-375 [19] = assay: Effect on cell migration in human A-375 cells at 0.01 to 1 uM incubated for 24 hrs by crystal violet staining based transwell assay; assay type: functional; settings: dose 0.01-1 µM
HCT-116 [20] = assay: Antiproliferative activity against human HCT-116 cells assessed as reduction in cell viability incubated for 72 hrs by CCK8 assay; assay type: functional, cell-based
[21] = target: T1, von Hippel-Lindau disease tumor suppressor/Mitogen-activated protein kinase 7; assay: PROTAC activity at VHL/ERK5 in human NCI-H1975 cells assessed as maximal induction of ERK5 degradation incubated for 12 hrs by western blot analysis relative to control; assay type: cell-based
Target sequence in this assay (P40337 whole entry partner): as the sequence (P40337 whole entry partner) above
Target sequence in this assay (Q13164 2-816 limits assumed): as the sequence (Q13164 2-816 limits assumed) above

A-375 [22] = assay: Inhibition of cell colony formation in human A-375 cells at 0.5 uM cultured in 8% FBS and measured after 7 days in presence of LPS by crystal violet staining based analysis; assay type: functional; settings: time 7.0 day
[23] = target: T1, von Hippel-Lindau disease tumor suppressor/Mitogen-activated protein kinase 7; assay: PROTAC activity at VHL/ERK5 in human A-375 cells assessed as induction of ERK5 degradation incubated for 12 hrs by western blot analysis; assay type: cell-based
Target sequence in this assay (Q13164 whole entry): as the sequence (Q13164 whole entry) above
Target sequence in this assay (P40337 whole entry): as the sequence (P40337 whole entry partner) above

[24] = target: T1, von Hippel-Lindau disease tumor suppressor/Mitogen-activated protein kinase 7; assay: PROTAC activity at VHL/ERK5 in human A-375 cells assessed as induction of ERK5 degradation at 200 nM incubated for 12 hrs by western blot analysis; assay type: cell-based
Target sequence in this assay (P40337 whole entry partner): as above
Target sequence in this assay (Q13164 2-816 limits assumed): as the sequence (Q13164 2-816 limits assumed) above

[25] = target: Mitogen-activated protein kinase 7 (Homo sapiens, UniProt Q13164); assay: Inhibition of ERK5 (unknown origin) at 0.5 uM by kinase profiling analysis
A-375 [26] = assay: Inhibition of M2 macrophage development in human A-375 cells assessed as inhibition of cell colony formation at 0.5 uM cultured in macrophage M0 medium and measured after 7 days in presence of LPS by crystal violet staining based analysis; assay type: functional; settings: time 7.0 day
HCT-116 [27] = assay: Effect on GDC0994-induced antitumor activity against human HCT-116 cells assessed as reduction in cell viability at 200 nM incubated for 72 hrs by CCK8 assay; assay type: functional, cell-based
THP-1 = assay: Inhibition of M2 macrophage development in PMA-differentiated human THP-1 cells assessed as morphological alterations in macrophages at 0.5 uM incubated for 48 hrs by microscopic analysis; assay type: functional, cell-based
HCT-116 [28] = assay: Effect on mirdametinib-induced antitumor activity against human HCT-116 cells assessed as reduction in cell viability at 200 nM incubated for 72 hrs by CCK8 assay; assay type: functional, cell-based
[29] = target: T1, von Hippel-Lindau disease tumor suppressor/Mitogen-activated protein kinase 7; assay: PROTAC activity at VHL/ERK5 in human HCT-116 cells assessed as induction of ERK5 degradation at 200 nM incubated for 48 hrs by western blot analysis; assay type: cell-based
HepG2 = assay: Antiproliferative activity against human HepG2 cells assessed as reduction in cell viability incubated for 72 hrs by CCK8 assay; assay type: functional, cell-based
[30] = target: T1, von Hippel-Lindau disease tumor suppressor/Mitogen-activated protein kinase 7; assay: PROTAC activity at VHL/ERK5 in human A-375 cells assessed as induction of ERK5 degradation at 200 nM incubated for 72 hrs by western blot analysis; assay type: cell-based

Sequence of von Hippel-Lindau disease tumor suppressor/Bromodomain-containing protein 4 (Homo sapiens) (P40337 whole entry, looked up, other chains not shown): as the sequence (P40337 whole entry partner) above
Sequence of Mitogen-activated protein kinase 7 (Q13164 2-816 limits assumed): as the sequence (Q13164 2-816 limits assumed) above

Question: What does the source list for `COc1cc(N2CCN(CCCCCCC(=O)N[C@H](C(=O)N3C[C@H](O)C[C@H]3C(=O)N[C@@H](C)c3ccc(-c4scnc4C)cc3)C(C)(C)C)CC2)ccc1Nc1ncc2c(n1)N(C)c1ccccc1C(=O)N2C`?
Answer: Activity (HCT-116 [1]): inactive; Activity [2]: 88.9%; Activity (HCT-116 [3]): inactive; Activity [4]: 41.3%; Activity (PC-3): inactive; Activity [5]: Active; inhibition (HCT-116 [6]): Active; Activity (A-375 [7]): inactive; Activity (A-375 [8]): inactive; DC50 [9]: 13.7 nM; inhibition (A-375 [10]): Active; Activity (NCI-H1975): inactive; Activity [11]: inactive; Activity [12]: inactive; Activity (A-375 [13]): inactive; inhibition (HCT-116 [14]): Active; Activity (MDA-MB-231): inactive; Activity (HCT-116 [15]): inactive; Activity [16]: Active; Activity (A-375 [17]): inactive; Activity (A-375 [18]): inactive; Activity (A-375 [19]): inactive; Activity (HCT-116 [20]): inactive; Activity [21]: 94.7%; inhibition (A-375 [22]): inactive; DC50 [23]: 41.4 nM; Activity [24]: Active; inhibition [25]: Active; inhibition (A-375 [26]): Active; Activity (HCT-116 [27]): inactive; inhibition (THP-1): Active; Activity (HCT-116 [28]): inactive; Activity [29]: Active; Activity (HepG2): inactive; Activity [30]: Active
